Experimental data as given in ChEMBL document CHEMBL1142925, “Optimization and determination of the absolute configuration of a series of potent inhibitors of human papillomavirus type-11 E1-E2 protein-protein interaction: a combined medicinal chemistry, NMR and computational chemistry approach” (Bioorg Med Chem, 2007).
Calls of active or inactive are those of the source. No cut-off for these calls is given here.

How the values were obtained:
[1] = biological target: Large T antigen (Simian virus 40) (UniProt P03070); experiment: Inhibition of binding of SV40 large T antigen to DNA by scintillation proximity assay; conditions: Betapolyomavirus macacae
[2] = Inhibition of HPV11 E1-E2 protein-protein interaction by E1-E2-ori-complex formation assay

Sequence of Large T antigen (Simian virus 40) (P03070 whole entry): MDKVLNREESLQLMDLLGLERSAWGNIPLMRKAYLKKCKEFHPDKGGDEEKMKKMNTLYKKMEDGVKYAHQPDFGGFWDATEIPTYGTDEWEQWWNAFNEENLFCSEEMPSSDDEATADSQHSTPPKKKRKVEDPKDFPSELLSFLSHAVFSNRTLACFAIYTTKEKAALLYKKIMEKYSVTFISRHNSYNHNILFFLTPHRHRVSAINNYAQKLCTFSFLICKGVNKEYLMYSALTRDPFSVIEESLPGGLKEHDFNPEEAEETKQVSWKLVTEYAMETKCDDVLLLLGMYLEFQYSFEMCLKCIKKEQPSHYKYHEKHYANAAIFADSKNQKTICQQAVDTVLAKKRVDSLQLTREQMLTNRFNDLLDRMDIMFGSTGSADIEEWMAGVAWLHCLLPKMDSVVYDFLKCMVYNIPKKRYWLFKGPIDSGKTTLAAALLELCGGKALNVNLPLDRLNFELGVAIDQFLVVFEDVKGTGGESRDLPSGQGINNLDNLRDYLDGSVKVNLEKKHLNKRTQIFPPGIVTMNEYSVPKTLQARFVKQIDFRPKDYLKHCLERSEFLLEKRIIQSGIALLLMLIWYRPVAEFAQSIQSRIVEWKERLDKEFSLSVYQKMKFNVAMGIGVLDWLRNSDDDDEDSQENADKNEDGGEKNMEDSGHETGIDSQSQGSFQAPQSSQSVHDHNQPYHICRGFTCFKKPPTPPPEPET

| Activity [1] | IC50 [2] [nM] | Structure (SMILES) |
| --- | --- | --- |
| inactive | 2100 | CC(C)(C)NC(=O)[C@H]1[C@@H](C(=O)O)C2(O[C@H]1c1ccc(Cl)c(Cl)c1)C(=O)c1ccccc1C2=O |
| inactive | 88 | O=C(Nc1ccc(N2CCOCC2)cc1)[C@H]1[C@@H](C(=O)O)C2(O[C@H]1c1ccc(Cl)c(Cl)c1)C(=O)c1ccccc1C2=O |
| inactive | 6 | Cc1cc2c(s1)C(=O)[C@]1(O[C@@H](c3ccc(Br)c(Br)c3)[C@@H](C(=O)Nc3ccc(N4CCOCC4)cc3)[C@H]1C(=O)O)C2=O |
| inactive | 740 | CC(=O)Nc1cccc(NC(=O)[C@H]2[C@@H](C(=O)O)C3(O[C@H]2c2ccc(Cl)c(Cl)c2)C(=O)c2ccccc2C3=O)c1 |
|  | 28 | O=C(Nc1ccc(N2CCOCC2)cc1)[C@H]1[C@@H](C(=O)O)C2(O[C@H]1c1ccc(Br)c(Br)c1)C(=O)c1ccccc1C2=O (stereo in doubt; 21) [listing 1 of 2 here] |
| inactive | 460 | Cc1cc2c(s1)C(=O)[C@@]1(O[C@@H](c3ccc(Br)c(Br)c3)[C@@H](C(=O)Nc3ccc(N4CCOCC4)cc3)[C@H]1C(=O)O)C2=O |
| inactive | 180 | Cc1ccc2c(c1)C(=O)[C@@]1(O[C@@H](c3ccc(Cl)c(Cl)c3)[C@@H](C(=O)Nc3ccc(-c4csnn4)cc3)[C@H]1C(=O)O)C2=O |
| inactive | 65000 | CC(=O)Nc1ccccc1NC(=O)[C@H]1[C@@H](C(=O)O)C2(O[C@H]1c1ccc(Cl)c(Cl)c1)C(=O)c1ccccc1C2=O |
| inactive | > 75000 | C[C@@H](NC(=O)[C@H]1[C@@H](c2ccc(Cl)c(Cl)c2)O[C@@]23C(=O)c4ccccc4[C@]2(O)OC(=O)[C@@H]13)c1ccccc1 |
| inactive |  | O=C(Nc1ccc(N2CCOCC2)cc1)[C@H]1[C@@H](C(=O)O)C2(O[C@H]1c1ccc(Br)c(Br)c1)C(=O)c1ccccc1C2=O (stereo in doubt; 21) [listing 2 of 2 here] |
| inactive | 350 | O=C(Nc1ccc2c(c1)OCO2)[C@H]1[C@@H](C(=O)O)C2(O[C@H]1c1ccc(Cl)c(Cl)c1)C(=O)c1ccccc1C2=O |
| inactive | 380 | CC(=O)c1ccc(NC(=O)[C@H]2[C@@H](C(=O)O)C3(O[C@H]2c2ccc(Cl)c(Cl)c2)C(=O)c2ccccc2C3=O)cc1 |
| inactive | 680 | O=C(Nc1ccccc1)[C@H]1[C@@H](C(=O)O)C2(O[C@H]1c1ccc(Cl)c(Cl)c1)C(=O)c1ccccc1C2=O |
| inactive | 3500 | O=C(NCc1ccccc1)[C@H]1[C@@H](C(=O)O)C2(O[C@H]1c1ccc(Cl)c(Cl)c1)C(=O)c1ccccc1C2=O |
|  | 51 | O=C(Nc1ccc(N2CCOCC2)cc1)[C@H]1[C@@H](C(=O)O)C2(O[C@H]1c1ccc(Br)c(Br)c1)C(=O)c1ccccc1C2=O (stereo in doubt; 19) [listing 1 of 2 here] |
| inactive | 15000 | O=C(Nc1ccc(N2CCOCC2)cc1)[C@H]1[C@@H](c2ccc(Br)c(Br)c2)OC2(C(=O)c3ccccc3C2=O)[C@H]1C(=O)O |
| inactive | 6800 | C[C@@H](NC(=O)[C@H]1[C@H]2C(=O)O[C@]3(O)c4ccccc4C(=O)[C@]23O[C@H]1c1ccc(Cl)c(Cl)c1)c1ccccc1 |
| inactive |  | O=C(Nc1ccc(N2CCOCC2)cc1)[C@H]1[C@@H](C(=O)O)C2(O[C@H]1c1ccc(Br)c(Br)c1)C(=O)c1ccccc1C2=O (stereo in doubt; 19) [listing 2 of 2 here] |
| inactive | 7800 | O=C(Nc1ccc2c(c1)OCO2)[C@H]1[C@@H](C(=O)O)C2(O[C@H]1c1ccc(Cl)cc1)C(=O)c1ccccc1C2=O |
| inactive | 440 | CC(=O)Nc1ccc(NC(=O)[C@H]2[C@@H](C(=O)O)C3(O[C@H]2c2ccc(Cl)c(Cl)c2)C(=O)c2ccccc2C3=O)cc1 |
| inactive | 6600 | O=C(Nc1ccc2c(c1)OCO2)[C@H]1[C@H]2C(=O)O[C@]3(O)c4ccccc4C(=O)[C@]23O[C@H]1c1ccc(Cl)cc1 |
| inactive | 150 | O=C(Nc1ccc(-c2csnn2)cc1)[C@H]1[C@@H](C(=O)O)C2(O[C@H]1c1ccc(Cl)c(Cl)c1)C(=O)c1ccccc1C2=O |
